Source: US10799494B2, “Combination of respiratory electron transport chain inhibitors with a cytochrome bd inhibitor” (priority 2015, dated 2020)
pIC50: −log10 of the molar value. Values joined by “and” are separate entries in the source; they are usually repeats but may differ in a detail not shown here. Identical values can stand only once.

Assays:
[1] = tested on: HepG2 cell line; assay: Human cell counter screen (HepG2) cellular toxicity
[2] = target: bovine cytochrome bc1 (Bos taurus (Bovine), UniProt P00157); assay: Bovine cytochrome bc1 inhibition (cytochrome c reduction, Keilin-Hartree particles); format: biochemical
[3] = tested on: M. tuberculosis H37Rv; assay: M. tuberculosis H37Rv growth inhibition screen at fixed 5 μM; format: cell-based, Mycobacterium tuberculosis; details: Mycobacterium tuberculosis, H37RV; aerobic; 5 μM compound; read-out: Growth of M. tuberculosis H37Rv (aerobic) at 5 μM of [compounds]
[4] = target: M. tuberculosis cytochrome bd-I (Mycobacterium tuberculosis, UniProt L7N662); format: biochemical
[5] = tested on: Mtb H37Rv; assay: In vitro (replicating) Mtb growth inhibition, microplate Alamar blue assay; format: cell-based, Mycobacterium tuberculosis
[6] = tested on: Mycobacterium tuberculosis (Mtb) H37Rv; assay: MGIT growth inhibition assay, time to positivity; format: cell-based
[7] = 9/79 vs placebo 2/81, […]; cited from earlier work
[8] = tested on: COc1c(O)c(C)c(C/C=C(\C)CCC=C(C)C)c(O)c1OC; assay: cells, lysate or membranes named; details: pH 7.5
[9] = tested on: COc1c(O)c(C)c(CC=C(C)C)c(O)c1OC; assay: cells, lysate or membranes named; details: pH 7.5
[10] = Table 8, WDH-2G-6 3 μM, MTC420 5.5 μM, lansoprazole sulphide 26.5 μM, TMC207 250 nM, media control 10

bovine cytochrome bc1, sequence (P00157 whole entry, looked up): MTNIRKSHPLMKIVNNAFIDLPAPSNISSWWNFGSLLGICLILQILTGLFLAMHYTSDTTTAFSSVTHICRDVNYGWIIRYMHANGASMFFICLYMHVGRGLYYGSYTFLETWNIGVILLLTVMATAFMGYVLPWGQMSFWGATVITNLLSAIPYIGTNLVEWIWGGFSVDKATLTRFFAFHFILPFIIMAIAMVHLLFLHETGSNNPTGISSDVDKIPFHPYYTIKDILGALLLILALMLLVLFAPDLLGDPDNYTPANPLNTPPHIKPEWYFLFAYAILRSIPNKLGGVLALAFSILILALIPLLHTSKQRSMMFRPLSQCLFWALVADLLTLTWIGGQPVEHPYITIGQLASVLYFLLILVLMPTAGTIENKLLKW
M. tuberculosis cytochrome bd-I, sequence (L7N662 1-485): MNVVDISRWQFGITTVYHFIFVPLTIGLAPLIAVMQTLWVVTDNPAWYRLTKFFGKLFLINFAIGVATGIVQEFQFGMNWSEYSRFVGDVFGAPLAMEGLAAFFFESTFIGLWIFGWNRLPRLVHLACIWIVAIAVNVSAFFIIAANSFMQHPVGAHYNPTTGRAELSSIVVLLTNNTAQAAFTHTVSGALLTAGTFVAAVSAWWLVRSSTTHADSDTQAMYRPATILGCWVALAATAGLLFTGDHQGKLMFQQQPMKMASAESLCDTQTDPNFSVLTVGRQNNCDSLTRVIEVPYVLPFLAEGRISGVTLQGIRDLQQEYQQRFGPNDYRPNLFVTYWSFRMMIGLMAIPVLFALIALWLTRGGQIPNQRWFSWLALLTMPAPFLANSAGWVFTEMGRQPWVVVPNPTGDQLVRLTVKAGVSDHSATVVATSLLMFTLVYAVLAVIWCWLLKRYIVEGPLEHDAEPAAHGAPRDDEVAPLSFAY

Compound | HepG2 [1] | pIC50 [2] | activity at 5 µM [3] | further results
Cc1c(-c2ccc(Cc3ccccc3)cc2)[nH]c2ccccc2c1=O [CK-2-88, 2-(4-Benzylphenyl)-3-methylquinolin-4(1H)-one] | >100 µM | 6.47 | 90.5% | inhibition @ 1 uM (% of cntls) [4]: 87.5 % of cntls
Cc1c(-c2ccc(Cc3ccc(F)cc3)cc2)[nH]c2ccccc2c1=O [LT-9, 2-(4-(4-Fluorobenzyl)phenyl)-3-methylquinolin-4(1H)-one] | >50 µM | – | 34.7% | –
Cc1c(-c2ccc(N3CCC(F)(F)C3)cc2)[nH]c2cc(F)cc(F)c2c1=O [MTC420] | – | – | – | pIC50 [5]: 6.28; Time to positivity / outgrowth of Mtb in MGITs ([6]; FIG. 3, repeated 3 times): 11 to 13 days; Time to Positivity ([6]; Table 6, compounds at 5x IC90, drug free control 11, followed to 74 days): 18 days; Time to Positivity [6, 10]: 13 days
O=c1cc(-c2ccc(Cc3ccc(OC(F)(F)F)cc3)cc2)[nH]c2ccccc12 [RKA-70, 2-(4-(4-(Trifluoromethoxy)benzyl)phenyl)quinolin-4(1H)-one] | >50 µM | 6.51 | 100% | –
Cc1c(-c2ccc(-c3ccc(OC(F)(F)F)cc3)nc2)[nH]c2ccccc2c1=O [SL-2-25, 3-Methyl-2-(6-(4-(trifluoromethoxy)phenyl)pyridin-3-yl)quinolin-4(1H)-one] | >50 µM | 6.05 | 88.9% | –
COc1nc2ccc(Br)cc2cc1[C@@H](c1ccccc1)[C@@](O)(CCN(C)C)c1cccc2ccccc12 [TMC 207, bedaquiline] | – | – | – | death in treatment group [7]: 11.4%; Time to Positivity ([6]; Table 7 / FIG. 9, compounds at 5x IC90, 7.5×10^5 Mtb cells per tube, drug free control 8, followed to 80 days): 12 days; Time to Positivity [6, 10]: 13 days
recombinant M. tuberculosis bd-I (Mycobacterium tuberculosis H37Rv) | – | – | – | Km [8]: 65.21 ± 15.31 µM and 65.2 ± 15.3 µM; Km [9]: 51.55 ± 8.9 µM and 51.6 ± 8.9 µM and 51.8 ± 6.1 µM
